For assay [1], the system named is OVCAR-3 cells. Put plainly: Cancer cell death verification (MTT cell viability). To be noted: OVCAR-3, 32 μM ADP-ribose, 24 hours. The format is cell-based.
Method: 3×10^3 SNU-1 or OVCAR-3 cells were cultured in a 96-well plate for 24 hours under conditions of 37° C. and 5% CO2, treated with ADP-ribose at concentrations of 32 μM, respectively, and cultured again for 24 hours under conditions of 37° C. and 5% CO2. Then, 10 μl of 3-(4,5-dimethylthiazol-2-yl)-2,5-diphenyltetrazolium bromide reagent was added to each well and reacted for 1 hour. After the reaction was completed, the reagent was removed, 200 μl of dimethyl sulfoxide was added to each well, and the absorbance was measured to confirm cell viability.
Assay [2] deals with Pancreatic cancer (AsPC-1) cells. Put plainly: Cell death by combination treatment with anti-cancer drug (MTT). The format is cell-based. The conditions noted are these: Homo sapiens, ASPC1, 24 h.
Method: (§3) 3×10^3 Brain cancer (U-87MG), lung cancer (H1975), pancreatic cancer (Aspc-1), liver cancer (Hep G2), breast cancer (MDA-MB-231), and colon cancer (HCT116) cells were cultured in a 96-well plate for 24 hours under conditions of 37° C. and 5% Ca2, respectively. […] After the treatment was terminated, the cells were cultured for 24 hours under conditions of 37° C. and 5% CO2 again, 10 μl of 3-(4,5-dimethylthiazol-2-yl)-2,5-diphenyltetrazolium bromide reagent was added to each well and reacted for 1 hour. After the reaction was completed, the reagent was removed, 200 μl of dimethyl sulfoxide was added to each well, and the absorbance was measured to compare the degree of cell death.
Then, 10 μl of 3-(4,5-dimethylthiazol-2-yl)-2,5-diphenyltetrazolium bromide reagent was added to each well and reacted for 1 hour. After the reaction was completed, the reagent was removed, 200 μl of dimethyl sulfoxide was added to each well, and the absorbance was measured to confirm cell viability.
The subject of assay [3] is Colon cancer (HCT116) cells. The assay is described as above. The format is cell-based. The conditions noted are these: Homo sapiens, HCT-116; HCT116, ADP-ribose 1.6 μM/100 μl in combination with 5-FU 10 μM, 24 hours, P<0.001.
Method: as §3
3×10^3 Colon cancer (HCT116) cells were cultured in a 96-well plate for 24 hours under conditions of 37° C. and 5% CO2, treated with ADP-ribose at a concentration of 1.6 μM/100 μl and 5-fluorouracil (5-FU) at 10 μM, individually or in combination, and cultured for 24 hours under conditions of 37° C. and 5% CO2 again. Then, 10 μl of 3-(4,5-dimethylthiazol-2-yl)-2,5-diphenyltetrazolium bromide reagent was added to each well and reacted for 1 hour. After the reaction was completed, the reagent was removed, 200 μl of dimethyl sulfoxide was added to each well, and the absorbance was measured to confirm cell viability.
The test system of assay [4] is Lung cancer (H1975) cells. Put plainly: Xenograft model, combination with anti-cancer drug, tumor volume. The assay is classed as in vivo, BALB/c nude mice. Here is the method: Brain (U-87MG), lung (H1975), pancreatic (AsPC-1), or liver (Hep G2) cells (1×10^7 cells) were inoculated into 5-week-old BALB/c nude mice on the back flank, respectively. Then, when tumors were grown to a volume of approximately 150 mm^3, the mice were divided into the control group (control), an anti-cancer drug alone treatment group, and a combination treatment group. […] The tumor size was measured every 6 days using a digital caliper, and the results of changes in tumor volume were compared by the group.
Lung cancer (H1975) cells (1×10^7) were inoculated into 5-week-old BALB/c nude mice on the back flank, and the mice were divided into three groups: the control group (Control), single oral administration of 1 mg/kg of osimertinib, and combination administration of osimertinib+10 mg/kg of ADP-ribose. When the tumors were grown to a volume of approximately 150 mm^3, osimertinib was administered orally twice a week, and ADP-ribose at 10 mg/kg was injected subcutaneously 3 times a week. The tumor size was measured using a digital caliper, and the results of changes in tumor volume were compared by the group.

The test system of assay [5] is U-87MG cells. Put plainly: Cancer cell death verification (MTT cell viability). The assay is classed as cell-based.
Method: (§4) 3×10^3 Brain cancer (U-87MG), lung cancer (H1975), pancreatic cancer (Aspc-1), liver cancer (Hep G2), breast cancer (MDA-MB-231), colon cancer (HCT116), kidney cancer (Caki-1), gastric cancer (SNU-1) and ovarian cancer (OVCAR-3) cells were cultured in a 96-well plate under conditions of 37° C. and 5% CO2 for 24 hours, and then each cancer cell was treated with ADP-ribose at each concentration. After culturing for 24 hours under conditions of 37° C. and 5% CO2 again, 10 μl of 3-(4,5-dimethylthiazol-2-yl)-2,5-diphenyltetrazolium bromide reagent was added to each well and reacted for 1 hour. After the reaction was completed, the reagent was removed, 200 μl of dimethyl sulfoxide was added to each well, and the absorbance was measured to determine the concentration of half-lethality and maximum lethality compared to untreated cells.
3×10^3 U-87MG cells were cultured in a 96-well plate for 24 hours under conditions of 37° C. and 5% CO2, treated with ADP-ribose at final concentrations of 0.125, 0.25, 0.5, 1, 2, 4, 8, 16, and 32 μM, respectively, and cultured again for 24 hours under conditions of 37° C. and 5% CO2. Then, 10 μl of 3-(4,5-dimethylthiazol-2-yl)-2,5-diphenyltetrazolium bromide reagent was added to each well and reacted for 1 hour. After the reaction was completed, the reagent was removed, 200 μl of dimethyl sulfoxide was added to each well, and the absorbance was measured to confirm cell viability.
The subject of assay [6] is U-87MG cells. Put plainly: Cell death by combination treatment of ADP-ribose and radiation (MTT). The assay is classed as cell-based. To be noted: 8 μM ADP-ribose in combination with 2 Gy radiation, 24 hours, P<0.001, 2 Gy alone about 88%.
Method: 3×10^3 Brain cancer (U-87MG) cells were cultured in a 96-well plate for 24 hours under conditions of 37° C. and 5% CO2, treated with 8 μM of ADP-ribose and 2 or 5 Gy dose of radiation individually or in combination, and cultured for 24 hours under conditions of 37° C. and 5% CO2 again. Then, 10 μl of 3-(4,5-dimethylthiazol-2-yl)-2,5-diphenyltetrazolium bromide reagent was added to each well and reacted for 1 hour. After the reaction was completed, the reagent was removed, 200 μl of dimethyl sulfoxide was added to each well, and the absorbance was measured to confirm cell viability.
The subject of assay [7] is H1975 cells. Put plainly: ADP-ribose quantitative analysis (ELISA) in cancer cells. The format is cell-based. The conditions noted are these: 4 μM ADP-ribose, 24 hours, P<0.001. How it is done: (§1) After culturing, the culture medium was removed, the cells were washed with phosphate-buffered saline, and then RIPA buffer was added and the cells were left on ice for 20 minutes. After scraping the cells, the cells were put in a centrifuge tube and centrifuged for 10 minutes at 10,000 g and 4° C. The supernatant was obtained, and 1% SDS was added, and then the reaction product was boiled at 100° C. for 5 minutes and cooled on ice. The supernatant was centrifuged again at 10,000 g and 4° C. for 10 minutes to obtain the final supernatant, and ADP-ribose was quantitatively analyzed and compared using an ELISA analysis kit (Cell Biolabs, Inc., San Diego, CA, USA).
(§2) The medium of the cultured cells was removed, and the supernatant prepared by treatment with RIPA buffer and 1% sodium dodecyl sulfate (SDS) was used for ELISA analysis to detect and analyze ADP-ribose.
Background: In an ELISA, binding on a coated surface is turned into a signal by an enzyme label.

Assay [8] deals with Caki-1 cells. The description is as above. The assay is classed as cell-based. The conditions noted are these: 16 μM ADP-ribose, 24 hours, P<0.001. Here is the method: as §1, §2
Assay [9] has as its system U-87MG cells. The assay is described as above. To be noted: 8 μM ADP-ribose, 24 hours, P<0.001. The assay is classed as cell-based. How it is done: as §1, §2
Assay [10] relates to HCT116 cells. The description is as above. The assay is classed as cell-based. The conditions noted are these: 8 μM ADP-ribose, 24 hours, P<0.001. Here is the method:
as §1, §2

For assay [11], the system named is AsPC-1 cells. The assay is described as above. The format is cell-based. The conditions noted are these: 8 μM ADP-ribose, 24 hours, P<0.001. How it is done: as §1, §2
In assay [12] the test system is H1975 cells. Put plainly: Cell death by combination treatment of ADP-ribose and radiation (MTT). The conditions noted are these: H1975, 2 μM ADP-ribose in combination with 2 Gy radiation, 24 hours, P<0.001; 2 Gy alone about 75%. The assay is classed as cell-based.
Method: 3×10^3 H1975 cells were cultured in a 96-well plate for 24 hours under conditions of 37° C. and 5% Ca2, treated with 2 μM of ADP-ribose and 2 or 5 Gy dose of radiation individually or in combination, and cultured for 24 hours under conditions of 37° C. and 5% CO2 again. Then, 10 μl of 3-(4,5-dimethylthiazol-2-yl)-2,5-diphenyltetrazolium bromide reagent was added to each well and reacted for 1 hour. After the reaction was completed, the reagent was removed, 200 μl of dimethyl sulfoxide was added to each well, and the absorbance was measured to confirm cell viability.
Assay [13] relates to Pancreatic cancer (AsPC-1) cells. Put plainly: Xenograft model, combination with radiation, tumor volume. The assay is classed as in vivo, BALB/c nude mice. To be noted: AsPC-1 xenograft. Here is the method: Brain cancer (U-87MG), pancreatic cancer (AsPC-1), breast cancer (MDA-MB-231), or kidney cancer (Caki-1) cells (1×10^7 cells) were inoculated into 5-week-old BALB/c nude mice on the back flank, respectively. Then, when tumors were grown to a volume of approximately 150 mm^3, the mice were divided into three groups: the control group (Control), 2 Gy dose of radiation alone, and a combination administration of 2 Gy dose of radiation+10 mg/kg of ADP-ribose (subcutaneous administration, 3 times a week). The irradiation was performed with an X-Rad 320 irradiator (Precision X-ray, North Branford, CT, USA), wherein the mice were placed by maintaining an appropriate distance from the radiation source for irradiation with a predetermined radiation dose. A lead shield was used to protect the body parts or organs from exposure to radiation, other than the cancerous part of the mouse. The irradiation was performed with a total of 2 Gy of radiation fractionated into two doses of 1 Gy each (for 2 days) at a dose rate of 300 kVp and 150 cGy/min using an X-ray beam filter composed of 12.5 mA and 2.0 mm Al. The tumor size was measured every 6 days using a digital caliper, and the results of changes in tumor volume were compared by the group.
Pancreatic cancer (AsPC-1) cells (1×10^7) were inoculated into 5-week-old BALB/c nude mice on the back flank, and the mice were divided into three groups: the control group (Control), 2 Gy dose of radiation alone, and combination administration of 2 Gy dose radiation+10 mg/kg of ADP-ribose. When the tumors were grown to a volume of approximately 150 mm^3, 2 Gy dose of radiation was irradiated twice at 1 Gy each, and 10 mg/kg of ADP-ribose was injected subcutaneously 3 times a week. The tumor size was measured using a digital caliper, and the results of changes in tumor volume were compared by the group.

Assay [14] deals with HCT116 cells. Put plainly: Cancer cell death verification (MTT cell viability). The assay is classed as cell-based.
Method: as §4
3×10^3 HCT116 cells were cultured in a 96-well plate for 24 hours under conditions of 37° C. and 5% Ca2, treated with ADP-ribose at concentrations of 0.125, 0.25, 0.5, 1, 2, 4, 8, 16, and 32 μM, respectively, and cultured again for 24 hours under conditions of 37° C. and 5% CO2. Then, 10 μl of 3-(4,5-dimethylthiazol-2-yl)-2,5-diphenyltetrazolium bromide reagent was added to each well and reacted for 1 hour. After the reaction was completed, the reagent was removed, 200 μl of dimethyl sulfoxide was added to each well, and the absorbance was measured to confirm cell viability.
Setting [15] is: ADP-ribose 10 mg/kg s.c. in combination with osimertinib 1 mg/kg, P<0.001.
Where [16] appears, read: ADP-ribose 10 mg/kg s.c. + 2 Gy radiation, P<0.001.

pIC50: −log10 of the molar value.

The term viability denotes a read-out of living cells in per cent, often relative to untreated cells.

With `Nc1ncnc2c1ncn2[C@@H]1O[C@H](COP(=O)(O)OP(=O)(O)OC[C@H]2O[C@@H](O)C(O)C2O)C(O)C1O` (stereo partly shown) [ADP-ribose, adenosine diphosphate ribose], in assay [1], the “cell death compared to the control group” value is “killed significantly”. In addition, the viability at 1.6 µM in assay [2] was approximately 1%; in assay [3], approximately 12%. The “reduction of tumor volume compared to the control group” value is given as “about 81%” in [4] (setting [15]) and “about 69.1%” in assay [13] (setting [16]). Besides, the “reduction of tumor volume compared to the group treated with osimertinib alone” value in assay [4] (setting [15]) is “about 77%”. Besides, the final tumor volume entry in [4] (ADP-ribose 10 mg/kg subcutaneous 3 times a week in combination with osimertinib 1 mg/kg, control about 2265.5) is “about 424.7 mm^3”; in assay [13] (ADP-ribose 10 mg/kg subcutaneous 3 times a week + 2 Gy radiation, control about 2384.3, 2 Gy alone about 1725.5), “about 736.2 mm^3”. Also, the pIC50 in assay [5] (Homo sapiens, U-87 MG, 24 h, read-out: half-lethal dose (concentration at which about half of the cells were killed)) was approximately 5.10; in assay [14] (Homo sapiens, HCT-116, 24 h, read-out: half-lethal dose (concentration at which about half of the cells were killed)), approximately 5.10. The “maximum lethal dose (concentration at which almost all cells were killed)” value was 32 µM in [5] (U-87MG, 24 hours, MTT) and 32 µM in assay [14] (HCT116, 24 hours, MTT). For the same compound, the “cancer cell growth under a microscope” value was “inhibited from growing and killed” in assay [5] (U-87MG, ADP-ribose treated vs control, FIG. 2A); “inhibited from growing and killed” in [14] (HCT116, ADP-ribose treated vs control, FIG. 7A). Further, the results for the “survival rate of cancer cells” value in assay [6] and in assay [12] were “about 12.3%” and “about 8%”, respectively. In addition, the “amount of ADP-ribose in cells compared to the control group” value in [7], in [8], in [9], in [10] and in [11] was “remarkably increased significantly” in each case. In assay [13] (setting [16]), the “reduction of tumor volume compared to the group treated with 2 Gy dose of radiation alone” value is given as “about 57.3%”.

Source of the values: patent US20230372382A1, “USE OF ADENOSINE DIPHOSPHATE RIBOSE FOR ADJUVANT THERAPY WITH RADIATION AND/OR ANTI-CANCER TREATMENT” (PearlsInMires Co., Ltd., priority 2021, published 2023).
